For 2 compounds, CC50 and IC50 results are on record in ChEMBL document CHEMBL1146190, “Azadideoxyadenosine: synthesis, enzymology, and anti-HIV activity” (Bioorg Med Chem Lett, 2006).

In one assay the test system is PBMC. The experiment in a line: Cytotoxicity against human PBMC. It counts as functional.
Assay [1] relates to Human immunodeficiency virus 1. The assay can be described thus: Antiviral activity against HIV1 NL4-3. Format: functional, organism-based. Particulars: Human immunodeficiency virus 1, NL4-3.
Assay [2] deals with Human immunodeficiency virus 1. The assay can be described thus: Antiviral activity against HIV1 TEKI. The conditions noted are these: Human immunodeficiency virus 1, TEKI. Format: functional, organism-based.

`Cc1cn([C@H]2C[C@H](N=[N+]=[N-])[C@@H](CO)O2)c(=O)[nH]c1=O` [ZIDOVUDINE] registered a CC50 with PBMC of more than 1 µM.
Regarding `Nc1ncnc2c1ncn2[C@H]1CN[C@@H](CO)C1`, the IC50 is 3.11 µM in assay [1] and 3.52 µM in assay [2]. This compound came in with a 50% cytotoxic concentration (CC50) in the assay on PBMC of 46.6 µM.

Broadly, the CC50 is the concentration giving 50% cytotoxicity. High values mean better tolerance by the cells, low ones harm at low concentration. In general, IC50 refers to the concentration at which inhibition is half-maximal. Read a low IC50 as higher potency.
